Measured values reported in patent US12378296B2, “Glucagon analogues as long-acting GLP-1/glucagon receptor agonists in the treatment of fatty liver disease and steatohepatitis” (Boehringer Ingelheim International GmbH, priority 2020, dated 2025).

Assay: Pharmacokinetic parameters after intravenous administration to rats
Assay type: in vivo
Conditions: male, Han/Wistar, plasma, rat, i.v. 20 nmol/kg; for MRT: read-out: Mean Residence Time; for half-life: read-out: Terminal half-life (converted)
Description: Pharmacokinetic parameters of the test compounds were determined after intravenous administration to Han/Wistar rats. The acylated GLP-1 analogue semaglutide was also tested for comparison purposes.
Male Wistar rats were obtained from Charles River (Germany) weighing approximately 180 to 210 g at time of arrival at the test facility. Rats were caged in European standard rat cages type IV with light cycle of 12-hour dark and 12-hour light. During the study rats were housed in standard rat cages type III. Both diet Altromin 1324 (Altromin, Germany) and water was administered ad libitum during the whole experimental period. The animals were housed in the test facility for at least 4 days in order to assure proper acclimatization.
The compounds were first dissolved in 0.1% aqueous ammonia to a nominal concentration of 2 mg/ml, and then diluted to the desired dosing strength (10 μM) in sterile PBS containing 25 mM phosphate buffer, pH 7.4. Intravenous injections corresponding to 20 nmol/kg were given via a lateral tail vein.
Blood samples (200 μl) were collected from the periorbital plexus at time points 0.08, 0.25, 0.5, 1, 2, 4, 8, 24, 32 and 48 h post dosing into K3EDTA tubes and centrifuged for 5 minutes at 4° C. within 20 minutes of sampling. Plasma samples (>100 μl) were transferred to 96-well PCR plates, immediately frozen and kept at −20° C. until analysed for plasma concentration for the respective GLP-1-glucagon compound using LC-MS/MS. Individual plasma concentration-time profiles were analysed by a non-compartmental approach using ToxKin™ version 3.2 (Unilog IT Services), and the resulting pharmacokinetic parameters were determined.

clearance | MRT | half-life | SMILES
5.98 mL/h/kg | 23.7 h | 18.1 h | CC[C@H](C)[C@H](NC(=O)[C@H](Cc1ccccc1)NC(=O)[C@H](CC(=O)O)NC(=O)[C@H](CCCCN)NC(=O)[C@H](C)NC(=O)[C@H](C)NC(=O)[C@H](CCCNC(=N)N)NC(=O)[C@H](CCC(=O)O)NC(=O)[C@H](CC(=O)O)NC(=O)[C@H](CC(C)C)NC(=O)[C@H](Cc1ccc(O)cc1)NC(=O)[C@H](CCCCN)NC(=O)[C@H](CO)NC(=O)[C@H](Cc1ccc(O)cc1)NC(=O)[C@H](CC(=O)O)NC(=O)[C@H](CO)NC(=O)[C@@H](NC(=O)[C@H](Cc1ccccc1)NC(=O)[C@@H](NC(=O)CNC(=O)[C@H](CCC(N)=O)NC(=O)C1(NC(=O)[C@@H](N)Cc2c[nH]cn2)CCC1)[C@@H](C)O)[C@@H](C)O)C(=O)N[C@@H](CCC(=O)O)C(=O)N[C@@H](Cc1c[nH]c2ccccc12)C(=O)N[C@@H](CC(C)C)C(=O)N[C@@H](CCC(=O)O)C(=O)N[C@@H](CCCCNC(=O)CNC(=O)CNC(=O)[C@H](CO)NC(=O)CNC(=O)[C@H](CO)NC(=O)CNC(=O)CC[C@H](NC(=O)CCCCCCCCCCCCCCCCC(=O)O)C(=O)O)C(=O)N[C@@H](C)C(N)=O [Compound 6]
3.57 mL/h/kg | 28.5 h | 22.8 h | CC[C@H](C)[C@H](NC(=O)[C@H](Cc1ccccc1)NC(=O)[C@H](CC(=O)O)NC(=O)[C@H](CCCCN)NC(=O)[C@H](C)NC(=O)[C@H](C)NC(=O)[C@H](CCCNC(=N)N)NC(=O)[C@H](CCC(=O)O)NC(=O)[C@H](CC(=O)O)NC(=O)[C@H](CC(C)C)NC(=O)[C@H](Cc1ccc(O)cc1)NC(=O)[C@H](CCCCN)NC(=O)[C@H](CO)NC(=O)[C@H](Cc1ccc(O)cc1)NC(=O)[C@H](CC(=O)O)NC(=O)[C@H](CO)NC(=O)[C@@H](NC(=O)[C@H](Cc1ccccc1)NC(=O)[C@@H](NC(=O)CNC(=O)[C@H](CCC(N)=O)NC(=O)C1(NC(=O)[C@@H](N)Cc2c[nH]cn2)CCC1)[C@@H](C)O)[C@@H](C)O)C(=O)N[C@@H](CCCCNC(=O)CNC(=O)CNC(=O)[C@H](CO)NC(=O)CNC(=O)[C@H](CO)NC(=O)CNC(=O)CC[C@H](NC(=O)CCCCCCCCCCCCCCCCC(=O)O)C(=O)O)C(=O)N[C@@H](Cc1c[nH]c2ccccc12)C(=O)N[C@@H](CC(C)C)C(=O)N[C@@H](CCC(=O)O)C(=O)N[C@@H](CO)C(=O)N[C@@H](C)C(N)=O [Compound 5]
